Structures can show the parent of a compound that is named as a salt.

Consider 21 compounds from patent publication US9540361B2, “N-substituted azetidine derivatives” (Merck Sharp & Dohme B.V., priority 2010, dated 2017).

In experiment [1] the target is T1, human estrogen receptor α (hERα) (Homo sapiens, UniProt P03372).
T1 sequence (P03372 1-595): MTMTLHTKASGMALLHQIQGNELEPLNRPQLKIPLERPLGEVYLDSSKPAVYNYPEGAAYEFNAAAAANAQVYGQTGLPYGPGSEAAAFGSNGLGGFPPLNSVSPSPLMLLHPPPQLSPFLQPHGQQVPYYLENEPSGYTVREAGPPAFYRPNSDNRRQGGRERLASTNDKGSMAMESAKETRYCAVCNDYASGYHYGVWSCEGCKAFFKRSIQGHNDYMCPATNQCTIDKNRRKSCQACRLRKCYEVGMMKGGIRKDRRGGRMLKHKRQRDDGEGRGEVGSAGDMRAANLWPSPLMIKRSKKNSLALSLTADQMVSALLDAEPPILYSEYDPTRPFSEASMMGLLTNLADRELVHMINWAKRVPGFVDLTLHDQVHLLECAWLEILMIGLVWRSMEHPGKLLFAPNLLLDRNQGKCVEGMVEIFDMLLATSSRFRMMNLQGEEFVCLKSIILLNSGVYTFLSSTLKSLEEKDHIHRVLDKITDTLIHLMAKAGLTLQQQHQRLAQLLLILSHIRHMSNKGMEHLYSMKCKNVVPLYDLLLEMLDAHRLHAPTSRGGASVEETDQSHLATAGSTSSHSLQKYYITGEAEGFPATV
As to the kind of experiment: antagonistic activity in CHO cells co-transfected with hERα, rat oxytocin promoter and luciferase reporter gene. It is filed as cell-based. The following applies: antagonism of 17β-estradiol-induced transactivation, CHO-hERα-RO-LUC; read-out: ERα pIC50 (converted). The procedure: The antagonistic activity of compounds on the estrogen receptors was determined in an in vitro bioassay with recombinant Chinese Hamster Ovary (CHO) cells stably co-transfected with the human estrogen receptor α (hERα), the rat oxytocin promoter (RO) and the luciferase reporter gene (LUC). […] The antagonistic efficacy, i.e. the amount of maximal inhibition of the 17β-estradiol activated receptor by a compound, is expressed as fraction relative to the maximal inhibition as induced by the standard anti-estrogen ICI 164,384 (efficacy test compound=(maximal inhibition test compound/maximal inhibition ICI 164,384)). A more detailed description of the methodology can be found in De Gooyer et al., Steroids, 68 (2003) 21-30.

Experiment [2] has as its target T2, estrogen receptor alpha (Homo sapiens, UniProt P03372).
T2 construct: endogenous in cells; host or cells: T47D human breast cancer cells (ATCC)
T2 sequence (P03372 1-595): T1 sequence (P03372 1-595)
In words: ERα downregulation assay in T47D breast cancer cells (ERα ELISA). The following applies: downregulation of ERα relative to fulvestrant (100%), 1E-5 M, 24 hours, negative = upregulation. Type of experiment: cell-based. The source says: More specifically, this in vitro bioassay is used to determine the efficacy (fraction of maximal response) of the compound by comparing the data for this compound with those of the reference compound ICI 182,780 (fulvestrant) in the same test (downregulation of fulvestrant is 100% by definition).
A more detailed description of the method used is as follows.
Cell culture. The human epithelial breast cancer cell line T47D (origin: ATCC) was routinely maintained in a 1:1 mixture of Ham's F12 medium and Dulbecco's Modified Eagle Medium (Gibco) enriched with 5% fetal calf serum (Hyclone), 10 mM HEPES pH 7.5 and 100 μg/ml penicillin-streptomycin solution. Cells were grown in 80 cm2 culture flasks (Nunc, Roskilde, Denmark) and kept in an atmosphere of 5% CO2-95% air at 37 degrees Celsius. Cells were subcultured when they reached about 80-90% confluence, resulting in one passage a week. Subculturing includes detaching the cells using Cell Dissociation Buffer [Sigma] and subsequent inoculation at 1:5 or 1:10 in a new Roux flask (175 cc) and\or plating out in Nunclon™ Surface 96 wells microplates. The culture medium needs to be refreshed on day three or four of the incubation, if applicable.
Determination of ERα protein levels: T47D cells in the microplates are incubated with 1E-5 M test compound for 24 hours. The supernatant in all wells is carefully aspirated. Cells are lysed on the microplate and cell lysates are probed for ERα content using an ERα ELISA assay kit (Active Motif).

Regarding `CCCN1CC(Oc2ccc(-c3c(-c4snnc4C)noc3-c3ccc(O)cc3)cc2)C1.Cl` [compound 7ae, 4-(3-(4-methyl-1,2,3-thiadiazol-5-yl)-4-(4-(1-propylazetidin-3-yloxy)phenyl)isoxazol-5-yl)phenol hydrochloride], in experiment [1], the IC50 was 12.6 nM. The “DR (%)” value in experiment [2] is 99%.
`CCCN1CC(Oc2ccc(-c3c(-c4c(C)noc4C)noc3-c3ccc(O)cc3)cc2)C1.Cl` [compound 7af, 4-(3′,5′-dimethyl-4-(4-(1-propylazetidin-3-yloxy)phenyl)-3,4′-biisoxazol-5-yl)-phenol hydrochloride]: in experiment [1], the IC50 is 3.16 nM. Also, in experiment [2], the “DR (%)” value is 92%.
For `CCCN1CC(Oc2ccc(C(=O)c3c(-c4ccccc4)noc3-c3ccc(O)cc3)cc2)C1.Cl` [compound 7ai, (5-(4-hydroxyphenyl)-3-phenylisoxazol-4-yl)(4-(1-propylazetidin-3-yloxy)-phenyl)methanone hydrochloride], in that order: 7.94 nM and 96%.
The corresponding values for `CCCN1CC(Oc2ccc(C(=O)c3c(-c4ccccc4C)noc3-c3ccc(O)cc3)cc2)C1.Cl` [compound 7aj, (5-(4-hydroxyphenyl)-3-o-tolylisoxazol-4-yl)(4-(1-propylazetidin-3-yloxy)-phenyl)methanone hydrochloride] are 3.16 nM and 100%.
Regarding `CCCN1CC(Oc2ccc(C(=O)c3c(-c4ncccc4C)noc3-c3ccc(O)cc3)cc2)C1.Cl` [compound 7am, (5-(4-hydroxyphenyl)-3-(3-methylpyridin-2-yl)isoxazol-4-yl)(4-(1-propylazetidin-3-yloxy)phenyl)methanone hydrochloride], the IC50 in experiment [1] is 25.1 nM. In experiment [2], the “DR (%)” value turned out to be 93%.
For `CCCN1CC(Oc2ccc(C(=O)c3c(-c4sccc4C)noc3-c3ccc(O)cc3)cc2)C1.Cl` [compound 7an, (5-(4-hydroxyphenyl)-3-(3-methylthiophen-2-yl)isoxazol-4-yl)(4-(1-propylazetidin-3-yloxy)phenyl)methanone hydrochloride], in that order: 2 nM and 98%.
With `CCCN1CC(Oc2ccc(C(=O)c3c(-c4ccccc4Cl)noc3-c3ccccc3)cc2)C1` [compound 7ao, (3-(2-chlorophenyl)-5-phenyl)isoxazol-4-yl)(4-(1-propylazetidin-3-yloxy)-phenyl)methanone hydrochloride], the IC50 in experiment [1] is 25.1 nM. Also, in experiment [2], the “DR (%)” value was found to be 80%.
The corresponding values for `CCCN1CC(Oc2ccc(C(=O)c3c(-c4ccccc4Cl)noc3-c3cccc(O)c3)cc2)C1.Cl` [compound 7ap, (3-(2-chlorophenyl)-5-(3-hydroxyphenyl)isoxazol-4-yl)(4-(1-propylazetidin-3-yloxy)phenyl)methanone hydrochloride] are 2 nM and 90%.
For `CCCN1CC(Oc2ccc(C(=O)c3c(-c4ccccc4Cl)noc3-c3cc[nH]c3)cc2)C1.O=C(O)C(F)(F)F` [compound 7aq, (3-(2-chlorophenyl)-5-(1H-pyrrol-3-yl)isoxazol-4-yl)(4-(1-propylazetidin-3-yl-oxy)phenyl)methanone 2,2,2-trifluoroacetate], in that order: 25.1 nM and 78%.
For `CCCN1CC(Oc2ccc(C(=O)c3c(-c4ccccc4Cl)noc3-c3ccc(N)cc3)cc2)C1.O=C(O)C(F)(F)F` [compound 7ar, (5-(4-aminophenyl)-3-(2-chlorophenyl)isoxazol-4-yl)(4-(1-propylazetidin-3-yl-oxy)phenyl)methanone 2,2,2-trifluoroacetate], the IC50 in experiment [1] was 20 nM. Besides, the “DR (%)” value in experiment [2] amounted to 82%.
For `CCCN1CC(Oc2ccc(C(=O)c3c(-c4ccccc4Cl)noc3-c3cccc4[nH]ncc34)cc2)C1.O=C(O)C(F)(F)F` [compound 7as, (3-(2-chlorophenyl)-5-(1H-indazol-4-yl)isoxazol-4-yl)(4-(1-propylazetidin-3-yl-oxy)phenyl)methanone 2,2,2-trifluoroacetate], in that order: 39.8 nM and 55%.
As for `CCCN1CC(Oc2ccc(C(=O)c3c(-c4ccccc4Cl)noc3-c3ccc(O)cc3)cc2F)C1.Cl` [compound 7at, (3-(2-chlorophenyl)-5-(4-hydroxyphenyl)isoxazol-4-yl)(3-fluoro-4-(1-propylazetidin-3-yloxy)phenyl)methanone hydrochloride], the IC50 in experiment [1] is 1.58 nM. Moreover, the “DR (%)” value in experiment [2] amounted to 101%.
Take `CCCN1CC(Oc2ccc(C(OC)c3c(-c4ccccc4Cl)noc3-c3ccc(O)cc3)cc2)C1` (stereo not drawn) [compound 7aw, 4-(3-(2-chlorophenyl)-4-(methoxy(4-(1-propylazetidin-3-yloxy)phenyl)methyl)-isoxazol-5-yl)phenol]: the IC50 in experiment [1] was 7.94 nM. For the same compound, the “DR (%)” value in experiment [2] was 64%.
The corresponding values for `C=C(c1ccc(OC2CN(CCC)C2)cc1)c1c(-c2ccccc2Cl)noc1-c1ccc(O)cc1` [compound 7ax, 4-(3-(2-chlorophenyl)-4-(1-(4-(1-propylazetidin-3-yloxy)phenyl)vinyl)isoxazol-5-yl)phenol] are 0.794 nM and 33%.
The corresponding values for `C=CCN1CC(Oc2ccc(-c3c(-c4ccc(O)cc4)sc4cc(O)ccc34)cc2)C1.O=C(O)C(F)(F)F` [compound 7b, 3-(4-(1-allylazetidin-3-yloxy)phenyl)-2-(4-hydroxyphenyl)benzo[b]thiophen-6-ol 2,2,2-trifluoroacetate] are 0.631 nM and 68%.
For `CCCN1CC(Oc2ccc(C(=O)c3c(-c4cccc(O)c4)noc3-c3ccccc3F)cc2)C1.Cl` [compound 7ba, (5-(2-fluorophenyl)-3-(3-hydroxyphenyl)isoxazol-4-yl)(4-(1-propylazetidin-3-yloxy)phenyl)methanone hydrochloride], in that order: 15.8 nM and 51%.
Consider `CCCN1CC(Oc2ccc(Cc3c(-c4ccccc4)c(=O)oc4cc(OC)ccc34)cc2)C1` [compound 7bf, 7-methoxy-3-phenyl-4-(4-(1-propylazetidin-3-yloxy)benzyl)-2H-chromen-2-one], for which the IC50 in experiment [1] is 63.1 nM. Further, the “DR (%)” value in experiment [2] turned out to be 33%.
As to `CN1CC(Oc2ccc(C(=O)c3c(-c4ccc(O)cc4)sc4cc(O)ccc34)cc2)C1.Cl` [compound 7d, (6-hydroxy-2-(4-hydroxyphenyl)benzo[b]thiophen-3-yl)(4-(1-methylazetidin-3-yloxy)phenyl)methanone hydrochloride], the IC50 in experiment [1] was 2 nM. Further, the “DR (%)” value in experiment [2] was 48%.
For the compound `CCCN1CC(Oc2ccc(C(=O)c3c(-c4ccccc4)sc4cc(O)ccc34)cc2)C1.Cl` [compound 7e, (6-hydroxy-2-phenylbenzo[b]thiophen-3-yl)(4-(1-propylazetidin-3-yloxy)-phenyl)methanone hydrochloride], in experiment [1], the IC50 is 2 nM. Moreover, the “DR (%)” value in experiment [2] is 96%.
For `CCCN1CC(Oc2ccc(C(=O)c3c(-c4cccs4)sc4cc(O)ccc34)cc2)C1.Cl` [compound 7f, (6-hydroxy-2-(thiophen-2-yl)benzo[b]thiophen-3-yl)(4-(1-propylazetidin-3-yl-oxy)phenyl)methanone hydrochloride], in that order: 2.51 nM and 88%.
As to `CCN1CC(Oc2ccc(C(=O)c3c(-c4ccc(O)cc4)sc4cc(O)ccc34)cc2)C1.O=C(O)C(F)(F)F` [compound 7g, (4-(1-ethylazetidin-3-yloxy)phenyl)(6-hydroxy-2-(4-hydroxyphenyl)benzo[b]-thiophen-3-yl)methanone 2,2,2-trifluoroacetate], the IC50 in experiment [1] was 3.98 nM. Besides, the “DR (%)” value in experiment [2] is 46%.
